{"source": "patent US20030099677A1", "about": "“Cosmetic composition and method of treating skin” (Unilever Home & Personal Care USA, Division of Conopco. Inc., priority 2001, published 2003)", "assay_type_in_all_cases": "cell-based", "key": {"[1]": {"tested_on": "procollagen-I synthesis in human dermal fibroblasts", "assay": "Dot blot assay for procollagen-I in dermal fibroblast conditioned medium", "details": "for Pro-collagen: 24 hours, relative to vehicle treated control value of 100", "procedure": "(§1) Primary human foreskin fibroblasts at passage 2 (P2) were seeded into 12-well plates at 10000 cells/cm^2 and maintained for 24 hours in an atmosphere of 5% carbon dioxide and 4% oxygen in Dulbeccos Modified Eagles Medium (DMEM) supplemented with 10% foetal calf serum. After this time the cells were washed with serum free DMEM and then incubated in fresh serum free DMEM for a further 60 hours. The fibroblast monolayers were then washed again with serum free DMEM. Test reagents and vehicle controls were added to the cells in triplicate in a final volume of 0.4 ml/well fresh serum free DMEM and incubated for a further 24 hours. This fibroblast conditioned medium was either analysed immediately or snap frozen in liquid nitrogen and stored at −70° C. for future analysis. The cells were then counted and data from the dot-blot analysis subsequently standardised to cell number.\n(§2) Samples of conditioned medium from dermal fibroblasts treated with vehicle (as a control) or test reagents were supplemented with 20 mM dithiothreitol (1:10 dilution of 200 mM stock solution) and 0.1% sodium dodecylsulphate (1:100 dilution of 10% stock solution), mixed well and then incubated at 75° C. for 2 minutes. […]\n(§3) Following this the Immobilon strips were again washed with TBS/Tween 20 (3×5 minutes) before being allowed to dry in air at room temperature. […] Dot intensity was assessed by computer-assisted image analysis using the quantification tools in ImageQuant™, standardised to cell number and the effects of various test reagents on decorin and procollagen-I synthesis were determined relative to a vehicle treated control value of 100 arbitrary units.\n(§4) Tables 1 indicates the effects of trans-7-octadecanoic acid on procollagen-I and decorin synthesis in human dermal fibroblasts, and the amounts in which it was applied. In order to normalize the results the effects of the test substance was determined relative to a vehicle treated control value of 100 arbitrary units."}, "[2]": {"tested_on": "Human foreskin keratinocytes", "assay": "Pico Green DNA assay of keratinocyte extracts (proliferation)", "procedure": "(§5) […] The cells were grown for 3 days prior to treatment. The treatment vehicle was DMSO. After 4 days of treatment, the cells were harvested and washed three times with 100 μl phosphate buffered saline (PBS). The cells were then extracted in 1% Triton X100, 50 mM Tris pH 8.0, 0.02 mM Leupeptin, 0.02 mM Pepstatin. 60 μl/well extract was then assayed for DNA concentration (ng/well), Pico Green DNA assay, Molecular Probes."}, "[3]": {"tested_on": "Human foreskin keratinocytes", "assay": "Keratinocyte cornified envelope assay (marker of keratinocyte differentiation)", "procedure": "Method to Assess Effect of Active on Keratinocyte Cornified Envelope Production—a Marker of Keratinocyte Differentiation\nas §5\nThe cells were then washed in 200 μl PBS, and then 100 μl of 2% SDS, 20 mM DTT was added to each well. The plates were then sealed with a Titertek plate sealer (ICN) and incubated at 60° C. over night in an air-tight damp environment (i.e. a sealed sandwich box lined with damp paper). The extract was then filtered through a PVDF transfer membrane (Bio-rad) under gravity using Dot-Blot apparatus (Bio-rad). The membrane was then washed in distilled water prior to silver staining (Bio-rad Silver Stain kit). The stained dot blot membrane was then analyzed using Phoretix array software (Phoretix International)."}, "[4]": {"tested_on": "Transglutaminase activity in pigskin epidermis", "assay": "In situ TGase assay in pig skin organ culture", "details": "for Transglutaminase activity (fluorescence-background) Mean: pig organ culture, 48 hours", "procedure": "Porcine back skin was prepared by carefully removing subcutaneous fat and muscle resulting in a skin sample 3-4 mm thick. Hair was clipped and the skin was washed in water, removing any residual blood or dirt. The skin sample was cut into 7 cm×7 cm squares and incubated in 5% Dettol (sterile) for 1 hr at room temp (RT). It was then incubated in DMEM containing ABAM (5 mL/500 mL of medium) for 1 hr. Hydrocortisone 21-hemisuccinate (100îg/mL, sterile filtered) was added to DMEM+ABAM. Tripods and meshes were set up on petri dishes containing 3 ml of media (DMEM/ABAM/hydrocortisone), creating a negative meniscus. Punch biopsies were taken from the skin and placed onto the mesh (4 per dish), and then incubated for 24 hrs at 37° C., 5% CO2 before being treated. Media was changed daily.\nA stock solution of 10 mM Biotinylated monodansylcadaverine in 0.013M HCl was, and stored at −20° C. From the stock solution substrate buffer was prepared: 0.1 mM biotinylated monodansylcadaverine, 5 mM CaCl2 in 100 mM Tris HCl. 5 mM CaCl2 was replaced with 200 mM EDTA for a […] control.\nPig skin biopsies were snap frozen in liquid nitrogen and stored at −20° C. Sections were cut (5-8 microns thick, Brights cryostat) and air-dried for 10 minutes at room temperature (RT). The sections were incubated for 30 minutes at RT with 1% BSA in 0.1M Tris/HC1, pH 8.4 then incubated in substrate buffer for 2 hours at RT. The slides were washed to stop the reaction in 25 mM EDTA in PBS for 5 minutes, followed by two washes in PBS. The slides were then incubated in Alexa fluor 488 streptavidin (1:250) for 30 minutes at RT, then washed in PBS as before. The slides were counterstained with 10îg/ml propidium iodide for 10 seconds, then washed in water and mounted in prolong antifade solution. Sections were visualised using a Microscope (Leica, Leitz DMRB, Leitz ploemopak filter block L3, Milton Keynes, Bucks. UK) and images were captured using Image Grabber PC Software (Neotech Ltd. Eastleigh, Hampshire, UK). […]"}, "[5]": {"tested_on": "decorin synthesis in human dermal fibroblasts", "assay": "Dot blot assay for decorin in dermal fibroblast conditioned medium", "details": "for Decorin: 24 hours, relative to vehicle treated control value of 100", "procedure": "as §1, §2, §3, §4"}, "[6]": {"details": "human dermal fibroblasts, statement in words"}, "[7]": {"details": "Table 3, 1 μM, grown in 1.2 mM calcium"}, "[8]": {"details": "Table 4, 0.001 μM, low calcium, P = 0.002"}}}
{"smiles": "CCCCCCCCCC/C=C/CCCCCC(=O)O", "note": "[Trans-7-octadecanoic acid, trans-7-octadecanoic acid]", "values": [{"measurement": "Pro-collagen", "setting": "[1]; 0.1 μM", "result": 194.96, "unit": "arbitrary units"}, {"measurement": "Pro-collagen", "setting": "[1]; 1.0 μM", "result": 126.63, "unit": "arbitrary units"}, {"measurement": "effect on synthesis of procollagen-I as compared to the control", "setting": "[1]; [6]", "result": "significantly up-regulates"}, {"measurement": "DNA Mean", "setting": "[2]; Table 2, 1 μM, grown in 1.2 mM calcium, p < 0.05", "result": 9, "unit": "ng/well"}, {"measurement": "DNA Mean", "setting": "[2]; Table 2, 10 μM, grown in 1.2 mM calcium, p < 0.05", "result": 7, "unit": "ng/well"}, {"measurement": "DNA Mean", "setting": "[2]; Table 2, 50 μM, grown in 1.2 mM calcium", "result": 6, "unit": "ng/well"}, {"measurement": "DNA Mean", "setting": "[2]; Table 2, 100 μM, grown in 1.2 mM calcium", "result": 4, "unit": "ng/well"}, {"measurement": "DNA Mean", "setting": "[2]; Table 3, 0.1 μM, grown in 1.2 mM calcium, P < 0.05", "result": 5, "unit": "ng/well"}, {"measurement": "DNA Mean", "setting": "[2]; [7]", "result": 6, "unit": "ng/well"}, {"measurement": "DNA % control", "setting": "[2]; Table 4, 0.001 μM, low calcium", "result": 100, "unit": "% control"}, {"measurement": "DNA Mean", "setting": "[2]; Table 4, 0.001 μM, low calcium", "result": 1.41, "unit": "ng/well"}, {"measurement": "DNA % control", "setting": "[2]; Table 4, 0.01 μM, low calcium", "result": 100, "unit": "% control"}, {"measurement": "DNA Mean", "setting": "[2]; Table 4, 0.01 μM, low calcium", "result": 1.42, "unit": "ng/well"}, {"measurement": "effect on keratinocyte proliferation", "setting": "[2]; in high calcium, statement in words", "result": "proliferation enhancer"}, {"measurement": "Cornified Envelope Assay Mean", "setting": "[3]; Table 2, 1 μM, grown in 1.2 mM calcium, 4 days of treatment", "result": 57900}, {"measurement": "Cornified Envelope Assay Mean", "setting": "[3]; Table 2, 10 μM, grown in 1.2 mM calcium, 4 days of treatment", "result": 54689}, {"measurement": "Cornified Envelope Assay Mean", "setting": "[3]; Table 2, 50 μM, grown in 1.2 mM calcium, 4 days of treatment", "result": 49272}, {"measurement": "Cornified Envelope Assay Mean", "setting": "[3]; Table 2, 100 μM, grown in 1.2 mM calcium, 4 days of treatment", "result": 42110}, {"measurement": "Cornified Envelope Assay Mean", "setting": "[3]; Table 3, 0.1 μM, grown in 1.2 mM calcium", "result": 37930}, {"measurement": "Cornified Envelope Assay Mean", "setting": "[3]; [7]", "result": 47773}, {"measurement": "Cornified Envelope Assay Mean", "setting": "[3]; [8]", "result": 39627}, {"measurement": "Cornified Envelope assay % control", "setting": "[3]; [8]", "result": 212, "unit": "% control"}, {"measurement": "Cornified Envelope Assay Mean", "setting": "[3]; Table 4, 0.01 μM, low calcium", "result": 22221}, {"measurement": "Cornified Envelope assay % control", "setting": "[3]; Table 4, 0.01 μM, low calcium", "result": 119, "unit": "% control"}, {"measurement": "effect on cornified envelope production", "setting": "[3]; in low calcium, at low concentrations, statement in words", "result": "induces cornified envelope production"}, {"measurement": "Transglutaminase activity (fluorescence-background) Mean", "setting": "[4]; 0.1 μM", "result": 1908}, {"measurement": "effect on transglutamine cross linking activity", "setting": "[4]; 1 μM, intact pigskin epidermis, statement in words", "result": "induces transglutamine cross linking activity"}, {"measurement": "Transglutaminase activity (fluorescence-background) Mean", "setting": "[4]; 1 μM", "result": 2268}, {"measurement": "Decorin", "setting": "[5]; 1.0 μM", "result": "163.10 % of vehicle control"}, {"measurement": "Decorin", "setting": "[5]; 10.0 μM", "result": "134.04 % of vehicle control"}, {"measurement": "effect on synthesis of decorin as compared to the control", "setting": "[5]; [6]", "result": "significantly up-regulates"}]}
